From patent US7563805B2, “Tri-, tetra-substituted-3-aminopyrrolidine derivative” (Daiichi Pharmaceutical Co., Ltd., priority 2005, dated 2009)
In brackets after ≈: the same amount, converted by molar mass. Like-named read-outs stand apart in the source and are kept apart here.

Experiments:
[1] = system: E. faecalis, ATCC 19433; assay: antibacterial activity (MIC), standard method of Japanese Society of Chemotherapy
[2] = in vivo; conditions: female, cynomolgus monkey, po, 5 mg/kg
[3] = in vivo; conditions: male, Crj:CD IGS, rat, po, 5 mg/kg
Method: (§1) The Comparative compound was also evaluated by the same procedure.
(§2) The test substance was orally administered to fasted rats (7 week old male Crj:CD IGS rats purchased from Charles River Laboratories Japan, Inc.) at a dose of 5 mg/kg.
(§3) Animals of absorption test group (3 animals per group) were sacrificed by bleeding under etherization at 0.25, 0.5, 1, 2, 4, and 8 hours after the drug administration, and blood, lever, kidney, and lung were collected. The blood was centrifuged (3000 rpm×15 minutes, 4° C.) after coagulation to collect serum. Tissue was homogenized after adding 3 to 5 mL of 0.1 mol/l phosphate buffer (pH 7.0), and the supernatant was collected from the homogenate (3000 rpm×15 minutes, 4° C.).
(§4) Animals of excretion test group (3 animals per group) were placed in a metabolic cage, and the urine of 0 to 4 hours and 4 to 24 hours after the administration was collected in a water-cooled container. Simultaneously with the collection of the urine, the cage was also washed with about 15 mL of 0.1 mol/l phosphate buffer (pH 7.0) to collect the urine attached to the cage. For evaluation of conjugates such as glucuronide, the collected sample was also aliquoted and hydrolyzed with an equal amount of 1 mol/l aqueous solution of sodium hydroxide, and the hydrolysate was neutralized with 0.5 mol/l hydrochloric acid and measured for its concentration. The concentration was measured by LC-MS/MS method.
(§5) Pharmacokinetic parameters of the each drug in rat were calculated by from the time course of the average concentration by using pharmacokinetic analysis software PSAG-CP (AS Medica Inc.) in a manner not dependent on the model animal.

[4] = system: P. vulgaris, 08601; assay: antibacterial activity (MIC), standard method of Japanese Society of Chemotherapy
[5] = system: Mycobacterium tuberculosis (quinolone sensitive); assay: anti-Mycobacterium tuberculosis (quinolone sensitive) activity, MIC; assay type: cell-based
[6] = system: S. aureus, 87037 (LVFX-resistant MRSA); assay: antibacterial activity (MIC), standard method of Japanese Society of Chemotherapy; conditions: S. aureus, 87037 (LVFX-resistant MRSA)
[7] = system: S. epidermidis, 56500; assay: as above
[8] = system: S. marscecens, 10100; assay: as above
[9] = system: S. pneumoniae, J24 (penicillin-intermediate resistant bacteria); assay: as above
[10] = system: Mycobacterium tuberculosis (sensitive bacteria); assay: anti-Mycobacterium tuberculosis (sensitive bacteria) activity, MIC; assay type: cell-based
[11] = design: species or system guinea pigs (Slc:Hertley); conditions: guinea pig, in vivo
Method: Guinea pig maximization test (GPMT) which is a widely accepted model for delayed antigenicity was conducted according to the method of Mugnusson et al. (J. invest. Dermatol., 52, 1969) by using a cutaneous sensitization concentration of 1% and a patch sensitization and induction concentration of 10%. At day 1, the animal was sensitized by cutaneously administering the test substance (the quinolone compounds and the control: vehicle, vaseline) (1% solution in physiological saline+FCA emulsion) at the back of the head of the shaved guinea pigs (7 week old male Slc:Hertley). At day 7, lauryl sodium sulfate (SLC) was applied for stimulus (adjuvant treatment), and on the next day, the test substance coated on a wax paper was patched onto the shaved skin to for sealed sensitization, and after 48 hours (at day 10), the waxed paper was removed. The skin reaction was observed upon the removal. On day 22, the test substance (10%) was patched onto the anterior side of the body for induction, and the induction patching was removed after 24 hours. On the next day (at day 24) and the next day (at day 25), the skin reaction was evaluated according to the description of the document as mentioned above. Erythema and edema were scored, and the case with the total score of 2 or higher was evaluated to be positive with the maximum of the score being 7.

[12] = biological target: T1, hERG K+ channel (Homo sapiens, UniProt Q12809); assay: hERG-K^+ channel blocking effect
[13] = rat, in vivo, po, 5 mg/kg
Method: as §1, §2, §3, §4, §5

[14] = system: P. aeruginosa, 32104; assay: antibacterial activity (MIC), standard method of Japanese Society of Chemotherapy
[15] = system: E. coli NIHJ; assay: as above
[16] = system: P. aeruginosa, 32121; assay: as above
[17] = female, cynomolgus monkey, in vivo, 5 mg/kg
[18] = system: S. aureus, 209P; assay: antibacterial activity (MIC), standard method of Japanese Society of Chemotherapy
[19] = biological target: CYP3A4 (Homo sapiens, UniProt P08684); conditions: known from the document cited; cited from earlier work
[20] = biological target: T1, hERG K+ channel
[21] = system: bone marrow cells (polychromatic erythrocytes); assay: mouse bone marrow micronucleus test; assay type: in vivo, Slc:ddY male mice; conditions: in vivo
Method: The control was 0.1 mol/l NaOH/physiological saline solvent, and the positive control was cyclophosphamide (cyclophoshamide, CP) dissolved and diluted in physiological saline. All samples were sterilized by filtering through Milex GS filter (0.22 μm). Each solution was intravenously administered at a dose of 10 mL/kg in single dose at an administration rate of 0.2 mL/min.
Bone marrow cells were collected from thigh bone at 24 hours after the administration, and smear preparation was prepared. After staining with acridine orange, 1000 polychromatic erythrocytes per animal were observed under fluorescence microscope to count frequency of micrronucleated polychromatic erythrocyte and ratio of the orthochromatic erythrocytes to the polychromatic erythrocyte in 1000 erythrocytes.

[22] = assay type: in vivo; conditions: 30 minutes observation
Method: The test substance was intracisternally administered to male Slc:ddy mice (6 animals per group), and the convulsion and death were monitored for each cage until 30 minutes after the administration. The test substance was dissolved in 5 μl of 1% aqueous solution of lactic acid, and the dose was 5, 15, or 50 μg per animal.
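For Serum AUC0-8 h in this document: fasted 7-week-old rats, three per group, tissue sampled up to 8 h post-dose and urine collected over 0–24 h, with conjugates measured after alkaline hydrolysis, concentrations by LC-MS/MS.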
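For Tissue AUC0-8 h, Kidney in this document: fasted 7-week-old rats, three per group, tissue sampled up to 8 h post-dose and urine collected over 0–24 h, with conjugates measured after alkaline hydrolysis, concentrations by LC-MS/MS.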
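For Tissue AUC0-8 h, Liver in this document: fasted 7-week-old rats, three per group, tissue sampled up to 8 h post-dose and urine collected over 0–24 h, with conjugates measured after alkaline hydrolysis, concentrations by LC-MS/MS.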
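For Tissue AUC0-8 h, Lung in this document: fasted 7-week-old rats, three per group, tissue sampled up to 8 h post-dose and urine collected over 0–24 h, with conjugates measured after alkaline hydrolysis, concentrations by LC-MS/MS.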

T1 sequence (Q12809 whole entry): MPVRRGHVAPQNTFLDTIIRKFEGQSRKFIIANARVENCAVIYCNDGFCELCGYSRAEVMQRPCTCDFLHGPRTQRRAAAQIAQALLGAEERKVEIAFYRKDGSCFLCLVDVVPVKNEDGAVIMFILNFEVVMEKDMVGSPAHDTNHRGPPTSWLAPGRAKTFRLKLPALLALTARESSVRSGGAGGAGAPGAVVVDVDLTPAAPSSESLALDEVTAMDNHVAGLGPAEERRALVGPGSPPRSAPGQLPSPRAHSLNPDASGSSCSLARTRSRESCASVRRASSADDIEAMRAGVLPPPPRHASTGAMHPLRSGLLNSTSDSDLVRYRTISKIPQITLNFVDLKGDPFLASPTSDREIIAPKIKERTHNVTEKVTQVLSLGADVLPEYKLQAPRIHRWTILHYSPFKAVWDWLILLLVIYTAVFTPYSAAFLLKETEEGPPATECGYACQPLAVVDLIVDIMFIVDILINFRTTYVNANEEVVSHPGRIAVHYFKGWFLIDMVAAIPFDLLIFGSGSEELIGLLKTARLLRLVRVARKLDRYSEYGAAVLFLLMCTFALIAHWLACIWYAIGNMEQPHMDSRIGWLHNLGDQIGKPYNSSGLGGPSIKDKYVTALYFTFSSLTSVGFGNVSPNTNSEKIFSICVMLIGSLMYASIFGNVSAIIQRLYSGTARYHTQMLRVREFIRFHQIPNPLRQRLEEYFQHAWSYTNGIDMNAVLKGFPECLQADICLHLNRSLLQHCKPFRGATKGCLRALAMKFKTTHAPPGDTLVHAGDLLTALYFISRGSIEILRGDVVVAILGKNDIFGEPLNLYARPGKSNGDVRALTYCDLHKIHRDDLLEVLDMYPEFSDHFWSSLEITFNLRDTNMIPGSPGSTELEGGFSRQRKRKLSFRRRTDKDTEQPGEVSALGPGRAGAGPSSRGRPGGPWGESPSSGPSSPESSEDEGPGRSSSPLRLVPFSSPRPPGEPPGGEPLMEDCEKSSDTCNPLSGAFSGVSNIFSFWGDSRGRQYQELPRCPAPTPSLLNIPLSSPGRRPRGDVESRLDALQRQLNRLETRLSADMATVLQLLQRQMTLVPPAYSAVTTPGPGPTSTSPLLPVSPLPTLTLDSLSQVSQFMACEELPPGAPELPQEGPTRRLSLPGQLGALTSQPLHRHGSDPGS
Chain of CYP3A4 (P08684 whole entry): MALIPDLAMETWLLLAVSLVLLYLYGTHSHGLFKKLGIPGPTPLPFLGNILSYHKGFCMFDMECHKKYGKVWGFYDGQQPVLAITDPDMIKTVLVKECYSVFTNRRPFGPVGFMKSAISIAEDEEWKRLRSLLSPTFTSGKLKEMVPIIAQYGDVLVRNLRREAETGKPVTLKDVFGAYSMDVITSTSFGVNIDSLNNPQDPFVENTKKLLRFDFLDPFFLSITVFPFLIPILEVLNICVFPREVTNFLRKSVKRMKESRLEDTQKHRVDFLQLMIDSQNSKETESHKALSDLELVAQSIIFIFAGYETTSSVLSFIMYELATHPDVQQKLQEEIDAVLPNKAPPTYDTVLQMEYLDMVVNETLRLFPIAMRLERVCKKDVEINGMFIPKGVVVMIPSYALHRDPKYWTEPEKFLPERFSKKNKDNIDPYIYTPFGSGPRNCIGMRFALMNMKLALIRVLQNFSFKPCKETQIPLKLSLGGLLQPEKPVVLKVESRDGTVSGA

COc1c(N2C[C@@H](N)C3(CC3)C2)c(F)cc2c(=O)c(C(=O)O)cn([C@@H]3C[C@@H]3F)c12 [Comparative compound 1]
MIC ([1]; Enterococcus faecalis, ATCC19433, E. faecalis): 0.1 µg/mL (≈ 0.247 µM)
AUC(0-t) [2]: 5110 ng·h/mL
Cmax [2]: 840 ng/mL
half-life [2]: 5 h
Cmax [3]: 820 ng/mL
MIC ([4]; Proteus vulgaris, 08601, P. vulgaris): 0.012 µg/mL (≈ 0.0296 µM)
MIC ([5]; strain 1 (QR-3)): 1 µg/mL (≈ 2.47 µM)
MIC ([5]; strain 2 (QR-6)): 128 µg/mL (≈ 316 µM)
MIC ([5]; strain 3 (QR-1)): 2 µg/mL (≈ 4.93 µM)
MIC ([5]; strain 4 (QR-9)): 32 µg/mL (≈ 78.9 µM)
MIC ([5]; strain MDR 1): 0.5 µg/mL (≈ 1.23 µM)
MIC ([5]; strain MDR 3): 0.5 µg/mL (≈ 1.23 µM)
MIC ([5]; strain MDR 4): 0.5 µg/mL (≈ 1.23 µM)
MIC ([5]; strain MDR 5): 1 µg/mL (≈ 2.47 µM)
MIC ([5]; strain MDR 7): 0.5 µg/mL (≈ 1.23 µM)
MIC ([5]; strain MDR 9): 0.5 µg/mL (≈ 1.23 µM)
MIC ([5]; strain MDR 12): 0.5 µg/mL (≈ 1.23 µM)
MIC ([5]; strain S 1): 2 µg/mL (≈ 4.93 µM)
MIC ([6]; Staphylococcus aureus, MRSA): 0.39 µg/mL (≈ 0.962 µM)
MIC ([7]; Staphylococcus epidermidis, 56500, S. epidermidis): 0.05 µg/mL (≈ 0.123 µM)
MIC [8]: 0.05 µg/mL (≈ 0.123 µM)
MIC ([9]; Streptococcus pneumoniae): 0.025 µg/mL (≈ 0.0617 µM)
MIC ([10]; H37RV, strain H37Rv): 0.06 µg/mL (≈ 0.148 µM)
MIC ([10]; strain Kurono): 0.06 µg/mL (≈ 0.148 µM)
MIC ([10]; strain Ravenel): 0.06 µg/mL (≈ 0.148 µM)
MIC ([10]; strain TB-s 2): 0.125 µg/mL (≈ 0.308 µM)
MIC ([10]; strain TB-s 3): 0.125 µg/mL (≈ 0.308 µM)
MIC ([10]; strain TB-s 4): 0.125 µg/mL (≈ 0.308 µM)
MIC ([10]; strain TB-s 5): 0.06 µg/mL (≈ 0.148 µM)
MIC ([10]; strain TB-s 6): 0.125 µg/mL (≈ 0.308 µM)
MIC ([10]; strain TB-s 7): 0.25 µg/mL (≈ 0.617 µM)
MIC ([10]; strain TB-s 8): 0.06 µg/mL (≈ 0.148 µM)
MIC ([10]; strain TB-s 9): 0.125 µg/mL (≈ 0.308 µM)
MIC ([10]; strain TB-s 10): 0.06 µg/mL (≈ 0.148 µM)
MIC ([10]; strain TB-s 11): 0.125 µg/mL (≈ 0.308 µM)
MIC ([10]; strain TB-s 12): 0.25 µg/mL (≈ 0.617 µM)
MIC ([10]; strain TB-s 13): 0.125 µg/mL (≈ 0.308 µM)
MIC ([10]; strain TB-s 14): 0.125 µg/mL (≈ 0.308 µM)
MIC ([10]; strain TB-s 15): 0.125 µg/mL (≈ 0.308 µM)
MIC ([10]; strain TB-s 16): 0.125 µg/mL (≈ 0.308 µM)
MIC ([10]; strain TB-s 17): 0.125 µg/mL (≈ 0.308 µM)
MIC ([10]; strain TB-s 18): 0.125 µg/mL (≈ 0.308 µM)
MIC ([10]; strain TB-s 19): 0.125 µg/mL (≈ 0.308 µM)
MIC ([10]; strain TB-s 20): 0.25 µg/mL (≈ 0.617 µM)
MIC ([10]; strain TB-s 21): 0.125 µg/mL (≈ 0.308 µM)
MIC ([10]; strain TB-s 22): 0.06 µg/mL (≈ 0.148 µM)
Evaluation in GPMT [11]: Positive
Average score in GPMT ([11]; male, Slc:Hertley): 6.8
inhibition at 30 µM [12]: 6.7 ± 8.3%
inhibition at 100 µM [12]: 13.5 ± 3.1%
inhibition at 300 µM [12]: 24.8 ± 16.5%
Recovery (%) in urine in relation to the amount administered, Recovery (%) including conjugate ([13]; male, Crj:CD IGS): 23.1%
Serum AUC0-8 h ([13]; male, Crj:CD IGS): 1590 ng·h/mL
Tissue AUC0-8 h, Kidney ([13]; male, Crj:CD IGS): 19300 ng·h/mL
Tissue AUC0-8 h, Liver ([13]; male, Crj:CD IGS): 15000 ng·h/mL
Tissue AUC0-8 h, Lung ([13]; male, Crj:CD IGS): 6770 ng·h/mL
Tissue Cmax, Kidney ([13]; male, Crj:CD IGS): 8.63 µg/g
Tissue Cmax, Liver ([13]; male, Crj:CD IGS): 9.3 µg/g
Tissue Cmax, Lung ([13]; male, Crj:CD IGS): 2.59 µg/g
MIC ([14]; Pseudomonas aeruginosa): 0.1 µg/mL (≈ 0.247 µM)
MIC ([15]; Escherichia coli): ≤ 0.003 µg/mL
MIC ([16]; Pseudomonas aeruginosa): 0.05 µg/mL (≈ 0.123 µM)
Recovery (%) in urine in relation to the amount administered, Recovery (%) including conjugate [17]: 32.9%
MIC ([18]; Staphylococcus aureus): 0.006 µg/mL (≈ 0.0148 µM)

CC[C@H]1OC(=O)[C@H](C)[C@@H](O[C@H]2C[C@@](C)(OC)[C@@H](O)[C@H](C)O2)[C@H](C)[C@@H](O[C@@H]2O[C@H](C)C[C@H](N(C)C)[C@H]2O)[C@](C)(OC)C[C@@H](C)C(=O)[C@H](C)[C@@H](O)[C@]1(C)O [clarithromycin]
MBI action for CYP3A4 [19]: exhibit MBI action for CYP3A4

COc1c(N2C[C@@H](C)[C@@](C)(N)C2)c(F)cc2c(=O)c(C(=O)O)cn([C@@H]3C[C@@H]3F)c12 (relative stereo) [Example 3, 7-[(3R*,4R*)-3-Amino-3,4-dimethylpyrrolidin-1-yl]-6-fluoro-1-[(1R,2S)-2-fluorocyclopropyl]-8-methoxy-1,4-dihydro-4-oxoguinoline-3-carboxylic acid]
MIC ([1]; E. faecalis): 0.2 µg/mL (≈ 0.491 µM)
hERG-K^+ channel blocking effect, Inhibition (%) ([20]; 30 µM): 5.3 ± 4.1%
hERG-K^+ channel blocking effect, Inhibition (%) ([20]; 100 µM): 12.0 ± 4.0%
hERG-K^+ channel blocking effect, Inhibition (%) ([20]; 300 µM): 22.3 ± 0.7%
MIC ([4]; P. vulgaris): 0.05 µg/mL (≈ 0.123 µM)
MIC [6]: 0.78 µg/mL (≈ 1.91 µM)
MIC ([7]; S. epidermidis): 0.1 µg/mL (≈ 0.245 µM)
MIC [8]: 0.2 µg/mL (≈ 0.491 µM)
micronucleus induction rate versus control, evaluation result [21]: negative
MIC [9]: 0.1 µg/mL (≈ 0.245 µM)
Recovery (%) in urine in relation to the amount administered, 0-24 h [13]: 24.5%
Recovery (%) in urine in relation to the amount administered, Recovery (%) including conjugate [13]: 24.7%
Serum AUC0-8 h [13]: 1850 ng·h/mL
Serum Cmax (0.25 h) [13]: 1030 ng/mL
Tissue AUC0-8 h, Kidney [13]: 17100 ng·h/mL
Tissue AUC0-8 h, Liver [13]: 15400 ng·h/mL
Tissue AUC0-8 h, Lung [13]: 7380 ng·h/mL
Tissue Cmax, Kidney [13]: 8.83 µg/g
Tissue Cmax, Liver [13]: 9.02 µg/g
Tissue Cmax, Lung [13]: 3.47 µg/g
MIC ([14]; P. aeruginosa): 0.39 µg/mL (≈ 0.957 µM)
MIC ([15]; E. coli NIHJ): 0.012 µg/mL (≈ 0.0295 µM)
MIC ([16]; P. aeruginosa): 0.2 µg/mL (≈ 0.491 µM)
convulsant activity (animals affected / 6 animals per group) ([22]; 5 μg/mouse intracisternal): 0/6
convulsant activity (animals affected / 6 animals per group) ([22]; 15 μg/mouse intracisternal): 2/6
convulsant activity (animals affected / 6 animals per group) ([22]; 50 μg/mouse intracisternal): 6/6
MIC [18]: 0.025 µg/mL (≈ 0.0614 µM)
